Counter-ions that a name gives are not always drawn.

The values below come from ChEMBL document CHEMBL1137798, “Evaluation of natural products as inhibitors of human immunodeficiency virus type 1 (HIV-1) reverse transcriptase” (J Nat Prod, 1991).

In this test the target is Human immunodeficiency virus type 1 reverse transcriptase (Human immunodeficiency virus 1, UniProt Q72547). The following applies: read-out: IC50 (converted).
As usually defined, the IC50 is the concentration needed to halve the response being measured. Turning to `COc1cc([C@H]2OC[C@H]3[C@@H]2CO[C@@H]3c2cc(OC)c(O[C@@H]3O[C@H](CO)[C@@H](O)[C@H](O)[C@H]3O)c(OC)c2)cc(OC)c1O[C@@H]1O[C@H](CO)[C@@H](O)[C@H](O)[C@H]1O` [LIRIODENDRIN], the IC50 is greater than 269 µM.
Take `C/C=C1/CN2[C@H]3C[C@@H]1[C@@H](CO)[C@@H]2Cc1c3[nH]c2ccc(OC)cc12` [LOCHNERINE]: the IC50 was greater than 616 µM.
On to `COc1cc2cc(c1Cl)N(C)C(=O)C[C@H](OC(=O)[C@H](C)N(C)C(C)=O)[C@]1(C)O[C@H]1[C@H](C)[C@@H]1C[C@@](O)(NC(=O)O1)[C@H](OC)/C=C/C=C(\C)C2` [MAYTANSINE], for which the IC50 was greater than 289 µM.
Regarding `COc1c(O)c2c3c(nccc3c1OC)C(C)(C)c1cc(O)ccc1-2` [MELOSMINE], the 50% inhibitory concentration (IC50) was greater than 593 µM.
As for `C[C@H]1C(=O)O[C@@H]2CCN3CC=C(COC(=O)[C@](C)(O)[C@]1(C)O)[C@H]23` [MONOCROTALINE], the IC50 is greater than 615 µM.
As for `COc1ccc(C(=O)Cc2c(CCN(C)C)cc3c(c2OC)OCO3)c(C(=O)O)c1OC` [NARCEINE], the IC50 was greater than 449 µM.
`COc1c([N+](=O)[O-])c2c(c3c1c(=O)c1ccccc1n3C)C=CC(C)(C)O2` [NITROACRONYCINE]: the IC50 is greater than 546 µM.
Consider `CC(=O)O[C@H]1CC(=O)OC(C)(C)[C@@H]2CC(=O)[C@]3(C)[C@H](CC[C@@]4(C)[C@@H](c5ccoc5)OC(=O)[C@H]5O[C@]543)[C@@]12C` [NOMILIN], for which the IC50 was greater than 389 µM.
Turning to `COC(=O)C[C@](O)(CCCC(C)(C)O)C(=O)O[C@@H]1C(OC)=C[C@]23CCCN2CCc2cc4c(cc2[C@H]13)OCO4` [OMACETAXINE MEPESUCCINATE], the IC50 was greater than 367 µM.
In the case of `C1CN[C@@H]2[C@@H](C1)[C@@H]1CC2([C@H]2CCC[C@H](C3CC[C@@H]4N[C@H]3N3CCC[C@H]5C[C@@H]6C[C@]4(CN4CCCC[C@H]64)[C@@H]53)N2)CN2CCCC[C@H]12` (stereo partly drawn) [ORMOSININE] it was greater than 324 µM; in that of `C[C@@H]1O[C@@H](O[C@H]2C[C@@H](O)[C@]3(CO)[C@H]4[C@H](O)C[C@]5(C)[C@@H](C6=CC(=O)OC6)CC[C@]5(O)[C@@H]4CC[C@]3(O)C2)[C@H](O)[C@H](O)[C@H]1O` [OUABAIN], greater than 342 µM; in that of `CC(=O)O[C@H]1C(=O)[C@@]2(C)[C@H]([C@H](OC(=O)c3ccccc3)[C@]3(O)C[C@H](OC(=O)[C@H](O)[C@@H](NC(=O)c4ccccc4)c4ccccc4)C(C)=C1C3(C)C)[C@]1(OC(C)=O)CO[C@@H]1C[C@@H]2O` [PACLITAXEL], greater than 234 µM.
As for `C1CCN2C[C@]34C[C@H](C[C@@H]5CCCN([C@@H]6CCC[C@@H]3N6)[C@H]54)[C@H]2C1` [PANAMINE DIPERCHLORATE], the figure is greater than 387 µM; as for `C1CCN2C[C@]34C[C@H](C[C@@H]5CCCN([C@@H]6CCC[C@@H]3N6)[C@H]54)[C@H]2C1` [PANAMINE], greater than 634 µM; as for `COc1ccc(Cc2nccc3cc(OC)c(OC)cc23)cc1OC` [PAPAVERINE], less than 589 µM.
As for `CC(=O)O[C@@H]1[C@H]2[C@H]3C[C@H]4C5=Nc6ccccc6[C@]51C[C@@H]2N4[C@H](C)C3C=O` (stereo partly drawn) [PERAKINE], the figure is greater than 571 µM; as for `C=C1c2cc3[nH]ccc3cc2CN2CC[C@@H]1/C(=C\C)C2` [PERICALLINE], greater than 757 µM; as for `C/C=C1/C=[N+]2[C@H]3C[C@H]1[C@H](C(=O)OC)[C@@H]2Cc1c3[nH]c2ccc(O)cc12` [PERICYCLIVINE], greater than 593 µM.
`C/C=C1/CN(C=O)[C@H]2Cc3c([nH]c4ccccc34)C(=O)C[C@@H]1[C@@H]2C(=O)OC` [PERIFORMYLINE]: the IC50 is greater than 546 µM.
With `C/C=C1/CN[C@H]2Cc3c([nH]c4ccccc34)C(=O)C[C@@H]1[C@@H]2C(=O)OC` [PERIVINE], the IC50 is greater than 591 µM.
As for `CNC[C@H](O)c1cccc(O)c1` [PHENYLEPHRINE], the IC50 was greater than 1200 µM.
As to `CC(=O)O[C@@H]1[C@@H](O)[C@H](O[C@H]2[C@H](OC(=O)[C@H]3CC[C@@H]4[C@H](C3)O[C@@]3(C[C@H](OC(=O)/C=C/c5ccccc5)[C@H](C)CO3)[C@]43CO3)O[C@H](C)[C@@H](O)[C@@H]2OC(C)=O)O[C@H](C)[C@H]1O` [PHYLLANTHOSIDE], the IC50 was greater than 248 µM.
As for `C=C(C)[C@@H]1[C@H]2OC(=O)[C@@H]1[C@]1(O)C[C@H]3OC34C(=O)O[C@H]2[C@@]41C.CC(C)(O)[C@@H]1[C@H]2OC(=O)[C@@H]1[C@]1(O)C[C@H]3OC34C(=O)O[C@H]2[C@@]41C` (stereo partly drawn) [PICROTOXIN], the figure is greater than 332 µM; as for `C/C=C1/C(=O)O[C@]23C=C[C@@H]4C(C(=O)OC)=CO[C@H](O[C@@H]12)[C@@H]43` [PLUMERICIN], greater than 689 µM; as for `COC(=O)C1=CO[C@@H](O[C@@H]2O[C@H](CO)[C@@H](O)[C@H](O)[C@H]2O)[C@H]2[C@@H]1C=C[C@@]21C=C([C@H](C)O)C(=O)O1` [PLUMIERIDE], greater than 425 µM.
For `CC(C)(O)CC[C@@H](O)[C@](C)(O)[C@H]1CC[C@@]2(O)C3=CC(=O)[C@]4(O)C[C@@H](O)[C@@H](O)C[C@]4(C)[C@H]3CC[C@]12C` [POLYPODIN], the IC50 was greater than 403 µM.
On to `CC1(C)CC[C@]2(CO)[C@H](O)C[C@]3(C)C(=CC[C@@H]4[C@@]5(C)CC[C@H](O)C(C)(C)[C@@H]5CC[C@]43C)[C@@H]2C1` [PRIMULAGENIN], for which the IC50 was greater than 436 µM.
In the case of `O=c1c(O)c(-c2ccc(O)c(O)c2)oc2cc(O)cc(O)c12` [QUERCETIN], the IC50 was less than 662 µM.
Take `C=C[C@H]1C[N@@]2CC[C@H]1C[C@@H]2[C@@H](O)c1ccnc2ccc(OC)cc12` [QUINIDINE SULFATE]: the IC50 is greater than 511 µM.
In the case of `COC(=O)C1=CO[C@H](C)[C@@H]2CN3CCc4c([nH]c5ccccc45)[C@@H]3C[C@H]12` [RAUNITICINE], the half-maximal inhibitory concentration (IC50) is greater than 567 µM.
As to `COC(=O)C1=CO[C@H](C)[C@@H]2CN3CCc4c([nH]c5cc(OC)ccc45)[C@@H]3C[C@H]12` [RAUNITIDINE], the IC50 was greater than 523 µM.
Turning to `C/C=C1/C[C@@H](C)[C@](O)(CO)C(=O)OCC2=CCN3CC[C@@H](OC1=O)[C@@H]23` [RETRORSINE], the IC50 is greater than 569 µM.
Regarding `C=C(C)[C@H]1Cc2c(ccc3c2O[C@@H]2COc4cc(OC)c(OC)cc4[C@]2(O)C3=O)O1` [ROTENOLONE], the IC50 is greater than 487 µM.
Take `C=C(C)[C@H]1Cc2c(ccc3c2O[C@@H]2COc4cc(OC)c(OC)cc4[C@@H]2C3=O)O1` [ROTENONE]: the IC50 was greater than 507 µM.
For the molecule `C[n+]1cc2c3c(ccc2c2ccc4cc5c(cc4c21)OCO5)OCO3` [SANGUINARINE NITRATE], the IC50 was less than 380 µM.
As for `C/C=C1/CN2[C@H]3C[C@H]1[C@@H](CO)[C@@H]2Cc1c3[nH]c2ccc(O)cc12` [SARPAGINE], the figure is greater than 644 µM.
On to `O=C1C[C@]23C=CCN4CC[C@H]5c6cc7c(cc6N1[C@@]5(CC2)[C@@H]43)OCO7` [SCHIZOZYGINE], for which the IC50 was greater than 595 µM.
For the molecule `CN1[C@@H]2C[C@@H](OC(=O)[C@H](CO)c3ccccc3)C[C@H]1[C@@H]1O[C@@H]12` [SCOPOLAMINE HYDROBROMIDE], the IC50 is greater than 456 µM.
`C/C=C1/C[C@@H](C)[C@@](C)(O)C(=O)OCC2=CCN3CC[C@@H](OC1=O)[C@@H]23` [SENECIONINE]: the IC50 was greater than 596 µM.
In the case of `C=C1C/C(=C/C)C(=O)O[C@@H]2CCN3CC=C(COC(=O)[C@]1(C)O)[C@H]23` [SENECIPHYLLINE] it was greater than 600 µM; in that of `CC(=O)N[C@H]1[C@@H](O[C@H]2[C@H](O)[C@@H](O)[C@H](O[C@H]3[C@H](CS(=O)(=O)O)[C@@H](OS(=O)(=O)O)[C@@H](O[C@H]4[C@H](O)[C@@H](OS(=O)(=O)O)C(O)O[C@H]4C(=O)O)O[C@@H]3O)O[C@@H]2C(=O)O)O[C@H](COS(=O)(=O)O)[C@@H](O)[C@@H]1O` (stereo partly drawn) [SODIUM HEPARIN], greater than 192 µM; in that of `C1CCN2C[C@@H]3C[C@@H](CN4CCCC[C@@H]34)[C@H]2C1` [SPARTEINE SULFATE], greater than 473 µM.
Turning to `C1CCN2C[C@@H]3C[C@@H](CN4CCCC[C@@H]34)[C@H]2C1` [SPARTEINE], the IC50 is greater than 853 µM.
For the molecule `C=C1C[C@@]23CC[C@H]4[C@@](C)(CCC[C@@]4(C)C(=O)O)[C@@H]2CC[C@]1(O)C3` [STEVIOL], the IC50 was greater than 628 µM.
For `C=C1C[C@@]23CC[C@H]4[C@@](C)(CCC[C@@]4(C)C(=O)O[C@@H]4O[C@H](CO)[C@@H](O)[C@H](O)[C@H]4O)[C@@H]2CC[C@]1(O[C@@H]1O[C@H](CO)[C@@H](O)[C@H](O)[C@H]1O[C@@H]1O[C@H](CO)[C@@H](O)[C@H](O)[C@H]1O)C3` [STEVIOSIDE], the IC50 was greater than 248 µM.
With `CC[C@H](/C=C/[C@@H](C)[C@H]1CC[C@H]2[C@@H]3CC=C4C[C@@H](O)CC[C@]4(C)[C@H]3CC[C@]12C)C(C)C` [STIGMASTEROL], the IC50 is greater than 485 µM.
With `O=C(OC[C@H]1O[C@@H](OC(=O)c2cc(O)c(O)c(OC(=O)c3cc(O)c(O)c(O)c3)c2)[C@H](OC(=O)c2cc(O)c(O)c(OC(=O)c3cc(O)c(O)c(O)c3)c2)[C@@H](OC(=O)c2cc(O)c(O)c(OC(=O)c3cc(O)c(O)c(O)c3)c2)[C@@H]1OC(=O)c1cc(O)c(O)c(OC(=O)c2cc(O)c(O)c(O)c2)c1)c1cc(O)c(O)c(OC(=O)c2cc(O)c(O)c(O)c2)c1` [TANNIC ACID], the IC50 was less than 29.4 µM.
Consider `COC(=O)C1=CO[C@@H](C)[C@@H]2CN3CCc4c([nH]c5ccccc45)[C@@H]3C[C@H]12` [TETRAHYDROALSTONINE], for which the half-inhibitory concentration (IC50) is greater than 567 µM.
Regarding `COc1cc2c(cc1OC)[C@@H]1Cc3ccc(OC)c(OC)c3CN1CC2` [TETRAHYDROPALMATINE], the concentration for half-maximal inhibition (IC50) is greater than 563 µM.
As to `COc1cc(C[C@H]2c3cc(OC)c(OC)cc3CCN2C)c(Oc2cc3c(cc2OC)-c2c(OC)c(OC)cc4c2[C@H](C3)N(C)CC4)cc1OC` [THALICARPINE], the 50% inhibitory concentration (IC50) was greater than 287 µM.
In the case of `C=C(C)C(O)C(O)c1cc2ccc(=O)oc2cc1OC` (stereo not drawn) [THAMNOSMONIN], the half-maximal inhibitory concentration (IC50) was greater than 724 µM.
`COc1cc2c(c3c1c(=S)c1ccccc1n3C)C=CC(C)(C)O2` [THIOACRONYCINE]: the IC50 was greater than 593 µM.
As for `O=C(/C=C/c1ccc(O)cc1)OC[C@H]1O[C@@H](Oc2c(-c3ccc(O)cc3)oc3cc(O)cc(O)c3c2=O)[C@H](O)[C@@H](O)[C@@H]1O` [TILIROSIDE], the IC50 was less than 336 µM.
